Test results from the NIST ThermoML archive (doi:10.1016/j.jct.2018.12.040).
Numbers after ± are expanded uncertainties.

Settings: Liquid; for mass density: 298.15 K, 101.33 kPa, Pycnometric method

| Normal boiling temperature (Distillation) [°C] | SMILES | mass density [kg/m3] | Normal boiling temperature (boiling in a capillary) [°C] |
| --- | --- | --- | --- |
| 160 ± 2 | C1CC1C(C1CC1)C1CC1 [tricyclopropylmethane] | 850 ± 1 |  |
|  | O=[N+]([O-])C(C1CC1)(C1CC1)[N+](=O)[O-] [dicyclopropyldinitromethane] | 1239.7 ± 1 | 290 ± 3 |
